Data set [1] in a line: Haematological analysis of xenograft mice after two-week therapy. Type of data set: in vivo. To be noted: mice with DLD-1 and HT-29 xenografts, 50 μg/kg s.c. once a day. The protocol: (§1) The second stage of the study was carried out with the use of animals (Cby.Cg-Foxn1nu/J mice, females) (Jackson Laboratory, USA). […] All procedures were carried out in accordance with the guidelines for experiments in animals and a protocol approved by the Local Ethics Committee (Resolution No. August 2018).
(§2) After the first week, when tumours reached about 5 mm in diameter, i.e. the size which according to literature data is suitable for carrying out further steps of examination, the mice began receiving subcutaneous injections of the sulfonamide derivative of 7-methyl-5-phenyl-pyrazolo[4,3-e]tetrazolo[4,5-b][1,2,4]triazine comprising 4-hydroxy-L-proline methyl ester in the sulfonamide group according to the invention (the compound of Formula 3) in a dose of 50 μg/kg once a day for two weeks. The moment of administration of the compound was marked as time 0. […] Before the administration of the sulfonamide derivative of 7-methyl-5-phenyl-pyrazolo[4,3-e]tetrazolo[4,5-b][1,2,4]triazine comprising 4-hydroxy-L-proline methyl ester in the sulfonamide group according to the invention (time 0), after the first week (time 1) and the second week (time 2) of administering this compound, the sizes of tumours were measured in two dimensions by means of a digital calliper. […]

For data set [2], the system named is HT-29 human colorectal cancer cells. The experiment in a line: Cytotoxicity, MTT assay (Carmichael's method), cell survival. Type of data set: cell-based. The note with it: HT-29, 24-hour incubation. The method, then: HT-29 human colorectal cancer cells (ATCC HTB-38, Manassas, VA, USA) were cultured in McCoy's 5A medium supplemented with 10% fetal bovine serum (FBS), 2 mM glutamine, 50 U/ml penicillin, 50 μg/ml of streptomycin at 37° C., in atmosphere containing 5% CO2. Subsequently, the cells were counted in a hemocytometer and were transferred in the amount of 1×10^6 cells per well in 1 ml of culture medium from Costar flasks (Sigma, USA) to Nunc 6-well plates (Wiesbaden, Germany). The cells were transferred using calcium-free phosphate buffer with the addition of 0.05% trypsin and 0.02% EDTA. […] Within the subsequent 24 hours the cells covered at least 80% of the surface of each plate well. […]
Cytotoxicity of the examined compounds according to the invention was measured by Carmichael's method (Carmichael J et al, Cancer Res., 1987, 47:943-946) and cell viability was determined using the tetrazolium salt (MT) in MTT assay. […] In a cell lysate prepared in such manner absorbance at 630 nm was measured. The result of absorbance obtained in the control cell cultures was assumed to be 100%. The viability of cells incubated in the presence of the examined compounds was expressed as percentage of the control values. The significance level p was determined by the nonparametric Mann-Whitney U test by means of SigmaStat software. […]
Background: Tetrazolium assays rely on reduction of a dye to a coloured formazan, in cell work by metabolically active cells.

A short description of data set [3]: Body weight of xenograft mice after two-week therapy. To be noted: mice with DLD-1 and HT-29 xenografts, 50 μg/kg s.c. once a day. Type of data set: in vivo. The protocol: as §1, §2
Additionally, the effect of the compound of Formula 3 on the body weight of the animals after the two-week therapy was assessed.

For data set [4], the system named is AGS human gastric cancer cells. The experiment in a line: DNA biosynthesis, [3H]-thymidine incorporation. Type of data set: cell-based. The note with it: 24-hour incubation. The method, then:
AGS human gastric cancer cells (ATCC CRL-1739, Manassas, VA, USA) were cultured in DMEM (Dulbecco's Modified Eagle's Medium) supplemented with 10% fetal bovine serum (FBS), 2 mM glutamine, 50 U/ml penicillin, 50 μg/ml streptomycin at 37° C., in atmosphere containing 5% CO2. Subsequently, the cells were counted in a hemocytometer and transferred in the amount of […] cells per well in 1 ml of culture medium from Costar flasks (Sigma, USA) to Nunc 6-well plates (Wiesbaden, Germany). The cells were transferred using calcium-free phosphate buffer with the addition of 0.05% trypsin and 0.02% EDTA. […] Within the subsequent 24 hours the cells covered at least 80% of the surface of each plate well. The cells prepared in this manner were incubated with the examined compounds for 24 hours and then used for further experiments.
The effect of the examined compounds according to the invention on the process of DNA biosynthesis was assessed by measuring incorporation of [^3H]-thymidine into DNA of the examined cells. […] After 5 minutes, the cell lysate obtained was transferred to scintillation vials containing 2 ml of scintillation fluid and radioactivity was measured. […] The values from the examined samples were expressed as percentage of the control value. The significance level p was determined by the nonparametric Mann-Whitney U test by means of SigmaStat software. […]
For orientation: Dividing cells build labelled thymidine or BrdU into new DNA.

As a reminder, the IC50 is the point on the concentration scale where inhibition reaches its midpoint. Read a low IC50 as inhibition by little substance. `COC(=O)C1CC(O)CN1S(=O)(=O)c1ccc(-n2nc(C)c3nc4nnnn4nc32)cc1` (stereo not drawn) [Compound of Formula 3, Methyl 4-hydroxy-1-[4-(7-methyl-5H-pyrazolo[4,3-e]tetrazolo[4,5-b][1,2,4]triazyn-5-yl)phenylsulfonyl]pyrrolidine-2-carboxylate]: in data set [1], the “haematological parameters (WBC, RBC, PLT, HCT, HGB, MCV, MCH, MCHC)” value is on record as “did not reveal any statistically significant changes”. Moreover, the values for the IC50 in data set [2] and in data set [4] were 3130 ± 20 nM and 1050 ± 10 nM, respectively. For the same compound, in data set [3], the “effect on body weight of the animals vs control” value is listed as “No significant differences”.

With `COC(=O)C1CCCN1S(=O)(=O)c1ccc(-n2nc(C)c3nc4nnnn4nc32)cc1` (stereo not drawn) [Compound of Formula 2, Methyl 1-[4-(7-methyl-5H-pyrazol[4,3-e]tetrazolo[4,5-b][1,2,4]triazyn-5-yl)phenylsulfonyl]pyrrolidine-2-carboxylate], the values for the half-inhibitory concentration (IC50) in data set [2] and in data set [4] were 1730 ± 30 nM and 550 ± 10 nM, respectively.
